ChEMBL document CHEMBL1130231, “Betidamino acid scan of the GnRH antagonist acyline” (J Med Chem, 1997)
Calls of active or inactive are those of the source. No cut-off for these calls is given here.

Legend:
Assay type in all cases: functional, organism-based
Rattus norvegicus [1] = assay: Ratio of ovulated rats to total number of rats determined in a anti-ovulatory assay by administering 100 microg of compound; 0/8
Rattus norvegicus [2] = assay: Ratio of ovulated rats to total number of rats determined in a anti-ovulatory assay by administering 50 microg of compound; 3/8
Rattus norvegicus [3] = assay: Ratio of ovulated rats to total number of rats determined in a anti-ovulatory assay by administering 10 microg of compound; 8/8
Rattus norvegicus [4] = assay: Ratio of ovulated rats to total number of rats determined in a anti-ovulatory assay by administering 25 microg of compound; 6/8
Rattus norvegicus [5] = assay: Ratio of ovulated rats to total number of rats determined in a anti-ovulatory assay by administering 1 microg of compound; 6/14
Rattus norvegicus [6] = assay: Ratio of ovulated rats to total number of rats determined in a anti-ovulatory assay by administering 2.5 microg of compound; 0/5
Rattus norvegicus [7] = assay: Ratio of ovulated rats to total number of rats determined in a anti-ovulatory assay by administering 5 microg of compound; 0/8
Rattus norvegicus [8] = assay: Ratio of ovulated rats to total number of rats determined in a anti-ovulatory assay by administering 1 ug of compound; 6/8
Rattus norvegicus [9] = assay: Ratio of ovulated rats to total number of rats determined in a anti-ovulatory assay by administering 10 microg of compound; 4/8
Rattus norvegicus [10] = assay: Ratio of ovulated rats to total number of rats determined in a anti-ovulatory assay by administering 2.5 microg of compound; 7/8
Rattus norvegicus [11] = assay: Ratio of ovulated rats to total number of rats determined in a anti-ovulatory assay by administering 10 microg of compound; 3/7
Rattus norvegicus [12] = assay: Ratio of ovulated rats to total number of rats determined in a anti-ovulatory assay by administering 10 microg of compound; 2/6
Rattus norvegicus [13] = assay: Ratio of ovulated rats to total number of rats determined in a anti-ovulatory assay by administering 25 microg of compound; 0/3
Rattus norvegicus [14] = assay: Ratio of ovulated rats to total number of rats determined in a anti-ovulatory assay by administering 1 microg of compound; 5/13
Rattus norvegicus [15] = assay: Ratio of ovulated rats to total number of rats determined in a anti-ovulatory assay by administering 2.5 microg of compound; 0/7
Rattus norvegicus [16] = assay: Ratio of ovulated rats to total number of rats determined in a anti-ovulatory assay by administering 0.5 microg of compound; 6/7
Rattus norvegicus [17] = assay: Ratio of ovulated rats to total number of rats determined in a anti-ovulatory assay by administering 5 microg of compound; 4/8
Rattus norvegicus [18] = assay: Ratio of ovulated rats to total number of rats determined in a anti-ovulatory assay by administering 5 microg of compound; 1/8
Rattus norvegicus [19] = assay: Ratio of ovulated rats to total number of rats determined in a anti-ovulatory assay by administering 10 ug of compound; 0/8
Rattus norvegicus [20] = assay: Ratio of ovulated rats to total number of rats determined in a anti-ovulatory assay by administering 2.5 microg of compound; 0/8
Rattus norvegicus [21] = assay: Ratio of ovulated rats to total number of rats determined in a anti-ovulatory assay by administering 1 microg of compound; 2/7
Rattus norvegicus [22] = assay: Ratio of ovulated rats to total number of rats determined in a anti-ovulatory assay by administering 2.5 microg of compound; 5/8
Rattus norvegicus [23] = assay: Ratio of ovulated rats to total number of rats determined in a anti-ovulatory assay by administering 250 microg of compound; 8/9
Rattus norvegicus [24] = assay: Ratio of ovulated rats to total number of rats determined in a anti-ovulatory assay by administering 1 microg of compound; 1/8
Rattus norvegicus [25] = assay: Ratio of ovulated rats to total number of rats determined in a anti-ovulatory assay by administering 1 microg of compound; 0/8
Rattus norvegicus [26] = assay: Ratio of ovulated rats to total number of rats determined in a anti-ovulatory assay by administering 0.5 microg of compound; 5/8

SMILES: CC(=O)Nc1ccc(C[C@H](NC(=O)[C@H](CO)NC(=O)[C@@H](Cc2cccnc2)NC(=O)[C@H](NC(=O)[C@@H](Cc2ccc3ccccc3c2)NC(C)=O)N(C)C(=O)c2ccc(Cl)cc2)C(=O)N[C@H](Cc2ccc(NC(C)=O)cc2)C(=O)N[C@@H](CC(C)C)C(=O)N[C@@H](CCCCNC(C)C)C(=O)N2CCC[C@@H]2C(=O)N[C@H](C)C(N)=O)cc1
- ov. rat/total (Rattus norvegicus [1]): Active
- ov. rat/total (Rattus norvegicus [2]): Partially active

SMILES: CC(=O)Nc1ccc(C[C@H](NC(=O)[C@H](CO)NC(=O)[C@@H](NC(=O)[C@@H](Cc2ccc(Cl)cc2)NC(=O)[C@@H](Cc2ccc3ccccc3c2)NC(C)=O)N(C)C(=O)c2cccnc2)C(=O)N[C@H](Cc2ccc(NC(C)=O)cc2)C(=O)N[C@@H](CC(C)C)C(=O)N[C@@H](CCCCNC(C)C)C(=O)N2CCC[C@@H]2C(=O)N[C@H](C)C(N)=O)cc1 (single isomer, unassigned)
- ov. rat/total (Rattus norvegicus [3]): inactive
- ov. rat/total (Rattus norvegicus [4]): inactive

SMILES: CC(=O)Nc1ccc(C[C@H](NC(=O)[C@H](CO)NC(=O)[C@@H](NC(=O)c2cccnc2)NC(=O)[C@@H](Cc2ccc(Cl)cc2)NC(=O)[C@@H](Cc2ccc3ccccc3c2)NC(C)=O)C(=O)N[C@H](Cc2ccc(NC(C)=O)cc2)C(=O)N[C@@H](CC(C)C)C(=O)N[C@@H](CCCCNC(C)C)C(=O)N2CCC[C@@H]2C(=O)N[C@H](C)C(N)=O)cc1
- ov. rat/total (Rattus norvegicus [5]): Partially active
- ov. rat/total (Rattus norvegicus [6]): Active

SMILES: CC(=O)Nc1ccc(C[C@H](NC(=O)[C@H](NC=O)NC(=O)[C@@H](Cc2cccnc2)NC(=O)[C@@H](Cc2ccc(Cl)cc2)NC(=O)[C@@H](Cc2ccc3ccccc3c2)NC(C)=O)C(=O)N[C@H](Cc2ccc(NC(C)=O)cc2)C(=O)N[C@@H](CC(C)C)C(=O)N[C@@H](CCCCNC(C)C)C(=O)N2CCC[C@@H]2C(=O)N[C@H](C)C(N)=O)cc1
- ov. rat/total (Rattus norvegicus [7]): Active
- ov. rat/total (Rattus norvegicus [8]): inactive

SMILES: CC(=O)Nc1ccc(C[C@H](NC(=O)[C@H](CO)NC(=O)[C@@H](Cc2cccnc2)NC(=O)[C@@H](Cc2ccc(Cl)cc2)NC(=O)[C@@H](Cc2ccc3ccccc3c2)NC(C)=O)C(=O)N[C@H](Cc2ccc(NC(C)=O)cc2)C(=O)N[C@@H](CC(C)C)C(=O)N[C@@H](C(=O)N2CCC[C@@H]2C(=O)N[C@H](C)C(N)=O)N(C)C(=O)CCNC(C)C)cc1 (single isomer, unassigned)
- ov. rat/total (Rattus norvegicus [9]): Partially active
- ov. rat/total (Rattus norvegicus [10]): inactive

SMILES: CC(=O)Nc1ccc(C[C@H](NC(=O)[C@H](CO)NC(=O)[C@H](NC(=O)c2ccncc2)NC(=O)[C@@H](Cc2ccc(Cl)cc2)NC(=O)[C@@H](Cc2ccc3ccccc3c2)NC(C)=O)C(=O)N[C@H](Cc2ccc(NC(C)=O)cc2)C(=O)N[C@@H](CC(C)C)C(=O)N[C@@H](CCCCNC(C)C)C(=O)N2CCC[C@@H]2C(=O)N[C@H](C)C(N)=O)cc1 (single isomer, unassigned)
- ov. rat/total (Rattus norvegicus [11]): Partially active

SMILES: CC(=O)Nc1ccc(C[C@H](NC(=O)[C@H](CO)NC(=O)[C@@H](Cc2cccnc2)NC(=O)[C@@H](Cc2ccc(Cl)cc2)NC(=O)[C@H](Cc2ccc3ccccc3c2)NC(C)=O)C(=O)N[C@H](Cc2ccc(NC(C)=O)cc2)C(=O)N[C@@H](CC(C)C)C(=O)N[C@@H](CCCCNC(C)C)C(=O)N2CCC[C@@H]2C(=O)N[C@H](C)C(N)=O)cc1
- ov. rat/total (Rattus norvegicus [12]): Partially active
- ov. rat/total (Rattus norvegicus [13]): Active

SMILES: CC(=O)Nc1ccc(C[C@H](NC(=O)[C@H](CO)NC(=O)[C@@H](Cc2cccnc2)NC(=O)[C@@H](Cc2ccc(Cl)cc2)NC(=O)[C@@H](Cc2ccc3ccccc3c2)NC(C)=O)C(=O)N[C@H](Cc2ccc(NC(C)=O)cc2)C(=O)N[C@@H](CC(C)C)C(=O)N[C@@H](CCCCNC(C)C)C(=O)N2CCC[C@@H]2C(=O)N[C@H](C)C(N)=O)cc1
- ov. rat/total (Rattus norvegicus [14]): Partially active
- ov. rat/total (Rattus norvegicus [15]): Active
- ov. rat/total (Rattus norvegicus [16]): inactive

SMILES: CC(=O)Nc1ccc(C[C@H](NC(=O)[C@H](NC(=O)CO)NC(=O)[C@@H](Cc2cccnc2)NC(=O)[C@@H](Cc2ccc(Cl)cc2)NC(=O)[C@@H](Cc2ccc3ccccc3c2)NC(C)=O)C(=O)N[C@H](Cc2ccc(NC(C)=O)cc2)C(=O)N[C@@H](CC(C)C)C(=O)N[C@@H](CCCCNC(C)C)C(=O)N2CCC[C@@H]2C(=O)N[C@H](C)C(N)=O)cc1 (single isomer, unassigned)
- ov. rat/total (Rattus norvegicus [17]): Partially active

SMILES: CC(=O)Nc1ccc(C[C@H](NC(=O)[C@H](CO)NC(=O)[C@H](Cc2cccnc2)NC(=O)[C@@H](Cc2ccc(Cl)cc2)NC(=O)[C@@H](Cc2ccc3ccccc3c2)NC(C)=O)C(=O)N[C@H](Cc2ccc(NC(C)=O)cc2)C(=O)N[C@@H](CC(C)C)C(=O)N[C@@H](CCCCNC(C)C)C(=O)N2CCC[C@@H]2C(=O)N[C@H](C)C(N)=O)cc1
- ov. rat/total (Rattus norvegicus [18]): Active
- ov. rat/total (Rattus norvegicus [19]): Active

SMILES: CC(=O)Nc1ccc(C[C@H](NC(=O)[C@H](CO)NC(=O)[C@@H](Cc2cccnc2)NC(=O)[C@@H](Cc2ccc(Cl)cc2)NC(=O)[C@@H](NC(C)=O)NC(=O)c2ccc3ccccc3c2)C(=O)N[C@H](Cc2ccc(NC(C)=O)cc2)C(=O)N[C@@H](CC(C)C)C(=O)N[C@@H](CCCCNC(C)C)C(=O)N2CCC[C@@H]2C(=O)N[C@H](C)C(N)=O)cc1
- ov. rat/total (Rattus norvegicus [20]): Active
- ov. rat/total (Rattus norvegicus [21]): Partially active

SMILES: CC(=O)Nc1ccc(C[C@H](NC(=O)[C@@H](NC(=O)[C@@H](Cc2cccnc2)NC(=O)[C@@H](Cc2ccc(Cl)cc2)NC(=O)[C@@H](Cc2ccc3ccccc3c2)NC(C)=O)N(C)C=O)C(=O)N[C@H](Cc2ccc(NC(C)=O)cc2)C(=O)N[C@@H](CC(C)C)C(=O)N[C@@H](CCCCNC(C)C)C(=O)N2CCC[C@@H]2C(=O)N[C@H](C)C(N)=O)cc1 (single isomer, unassigned)
- ov. rat/total (Rattus norvegicus [22]): Partially active

SMILES: CC(=O)Nc1ccc(C[C@H](NC(=O)[C@H](CO)NC(=O)[C@@H](Cc2cccnc2)NC(=O)[C@@H](NC(=O)c2c[nH]nc2N)NC(=O)[C@@H](Cc2ccc3ccccc3c2)NC(C)=O)C(=O)N[C@H](Cc2ccc(NC(C)=O)cc2)C(=O)N[C@@H](CC(C)C)C(=O)N[C@@H](CCCCNC(C)C)C(=O)N2CCC[C@@H]2C(=O)N[C@H](C)C(N)=O)cc1 (single isomer, unassigned)
- ov. rat/total (Rattus norvegicus [23]): inactive

SMILES: CC(=O)Nc1ccc(C[C@H](NC(=O)[C@H](CO)NC(=O)[C@@H](Cc2cccnc2)NC(=O)[C@@H](Cc2ccc(Cl)cc2)NC(=O)[C@@H](Cc2ccc3ccccc3c2)NC(C)=O)C(=O)N[C@H](Cc2ccc(NC(C)=O)cc2)C(=O)N[C@@H](CC(C)C)C(=O)N[C@@H](CCCCNC(C)C)C(=O)N2CCC[C@@H]2C(=O)N[C@H](C(N)=O)N(C)C=O)cc1
- ov. rat/total (Rattus norvegicus [24]): inactive
- ov. rat/total (Rattus norvegicus [20]): Active

SMILES: CC(=O)Nc1ccc(C[C@H](NC(=O)[C@H](CO)NC(=O)[C@@H](Cc2cccnc2)NC(=O)[C@@H](Cc2ccc(Cl)cc2)NC(=O)[C@@H](Cc2ccc3ccccc3c2)NC(C)=O)C(=O)N[C@H](Cc2ccc(NC(C)=O)cc2)C(=O)N[C@@H](CC(C)C)C(=O)N[C@H](C(=O)N2CCC[C@@H]2C(=O)N[C@H](C)C(N)=O)N(C)C(=O)CCNC(C)C)cc1 (single isomer, unassigned)
- ov. rat/total (Rattus norvegicus [25]): Active
- ov. rat/total (Rattus norvegicus [26]): Partially active
- ov. rat/total (Rattus norvegicus [20]): Active
